{"source": "paper PMC9506414", "about": "“Novel 2,6,9-Trisubstituted Purines as Potent CDK Inhibitors Alleviating Trastuzumab-Resistance of HER2-Positive Breast Cancers” (Pharmaceuticals, 2022)", "key": {"CDK12/CyclinK": {"target": "CDK12/CyclinK (Homo sapiens, UniProt Q9NYV4)", "sequence (Q9NYV4 whole entry)": "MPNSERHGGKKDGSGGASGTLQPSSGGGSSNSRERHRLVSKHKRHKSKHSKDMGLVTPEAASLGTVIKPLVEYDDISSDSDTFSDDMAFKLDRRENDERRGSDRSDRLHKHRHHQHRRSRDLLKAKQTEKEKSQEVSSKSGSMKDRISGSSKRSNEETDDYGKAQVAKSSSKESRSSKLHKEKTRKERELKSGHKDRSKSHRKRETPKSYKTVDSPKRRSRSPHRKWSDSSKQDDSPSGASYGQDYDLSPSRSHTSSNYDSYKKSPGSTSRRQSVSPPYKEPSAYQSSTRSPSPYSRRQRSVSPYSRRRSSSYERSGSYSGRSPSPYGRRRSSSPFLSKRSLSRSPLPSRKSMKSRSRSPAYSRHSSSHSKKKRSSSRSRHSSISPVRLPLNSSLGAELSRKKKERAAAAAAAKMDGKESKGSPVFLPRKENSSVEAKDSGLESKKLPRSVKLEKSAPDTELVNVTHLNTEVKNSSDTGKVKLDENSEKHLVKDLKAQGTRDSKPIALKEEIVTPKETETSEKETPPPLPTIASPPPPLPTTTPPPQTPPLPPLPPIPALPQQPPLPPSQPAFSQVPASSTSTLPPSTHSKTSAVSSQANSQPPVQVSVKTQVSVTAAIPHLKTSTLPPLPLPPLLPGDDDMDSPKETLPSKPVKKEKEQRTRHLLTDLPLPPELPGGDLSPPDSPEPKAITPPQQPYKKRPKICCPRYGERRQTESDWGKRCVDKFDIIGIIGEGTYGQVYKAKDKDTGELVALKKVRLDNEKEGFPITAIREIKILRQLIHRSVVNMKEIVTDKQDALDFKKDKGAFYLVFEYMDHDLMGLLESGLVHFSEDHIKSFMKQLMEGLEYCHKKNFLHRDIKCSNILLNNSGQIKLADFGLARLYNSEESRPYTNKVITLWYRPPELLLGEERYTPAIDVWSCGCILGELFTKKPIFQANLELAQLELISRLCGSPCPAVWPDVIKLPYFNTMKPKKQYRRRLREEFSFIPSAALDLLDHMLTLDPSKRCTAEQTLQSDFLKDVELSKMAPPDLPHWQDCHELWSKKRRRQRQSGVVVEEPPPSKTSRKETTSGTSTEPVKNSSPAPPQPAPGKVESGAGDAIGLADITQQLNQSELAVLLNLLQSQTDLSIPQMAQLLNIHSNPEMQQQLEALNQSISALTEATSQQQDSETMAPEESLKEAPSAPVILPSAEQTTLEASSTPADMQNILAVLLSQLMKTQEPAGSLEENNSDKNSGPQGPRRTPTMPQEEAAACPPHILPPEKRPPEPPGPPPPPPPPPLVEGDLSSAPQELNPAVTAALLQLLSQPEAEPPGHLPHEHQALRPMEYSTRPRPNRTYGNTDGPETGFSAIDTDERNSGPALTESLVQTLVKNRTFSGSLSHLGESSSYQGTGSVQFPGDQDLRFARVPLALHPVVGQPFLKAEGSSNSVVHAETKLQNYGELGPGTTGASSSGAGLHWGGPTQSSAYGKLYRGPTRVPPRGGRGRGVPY", "sequence (O75909 whole entry partner)": "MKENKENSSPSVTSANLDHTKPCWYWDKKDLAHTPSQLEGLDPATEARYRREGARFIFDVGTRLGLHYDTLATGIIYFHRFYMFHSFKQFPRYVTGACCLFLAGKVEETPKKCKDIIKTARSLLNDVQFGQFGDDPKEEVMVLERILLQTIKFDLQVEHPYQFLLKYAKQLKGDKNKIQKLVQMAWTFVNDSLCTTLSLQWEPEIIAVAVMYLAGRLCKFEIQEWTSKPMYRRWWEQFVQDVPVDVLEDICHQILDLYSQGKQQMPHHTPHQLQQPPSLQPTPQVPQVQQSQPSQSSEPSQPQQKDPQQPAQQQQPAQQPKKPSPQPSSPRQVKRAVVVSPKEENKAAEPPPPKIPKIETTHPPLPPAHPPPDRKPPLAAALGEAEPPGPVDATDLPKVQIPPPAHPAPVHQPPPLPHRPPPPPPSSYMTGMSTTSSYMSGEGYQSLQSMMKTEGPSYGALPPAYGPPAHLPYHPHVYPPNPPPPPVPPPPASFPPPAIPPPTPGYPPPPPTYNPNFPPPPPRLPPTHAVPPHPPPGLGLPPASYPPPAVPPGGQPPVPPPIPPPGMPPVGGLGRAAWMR", "assay": "Kinome-wide inhibition profiling", "type": "biochemical", "set-up": "purchased Reaction Biology Corp", "protocol": "(§1) In vitro CDK12/cyclinK assays for all compounds and in vitro kinome-wide inhibition profiling of 30d at 10 μM were performed by a CRO company (Reaction Biology Corp., San Diego, CA, USA)."}, "MNK2": {"target": "T1, MNK2 (Homo sapiens, UniProt Q9HBH9)", "T1 construct": "purchased Reaction Biology Corp", "assay": "Kinome-wide inhibition profiling", "type": "biochemical", "protocol": "as §1"}, "MARK4": {"target": "T2, MARK4 (Homo sapiens, UniProt Q96L34)", "T2 construct": "purchased Reaction Biology Corp", "assay": "Kinome-wide inhibition profiling", "type": "biochemical", "protocol": "as §1"}, "HCK": {"target": "T3, HCK (Homo sapiens, UniProt P08631)", "T3 construct": "purchased Reaction Biology Corp", "T3 sequence (P08631 whole entry)": "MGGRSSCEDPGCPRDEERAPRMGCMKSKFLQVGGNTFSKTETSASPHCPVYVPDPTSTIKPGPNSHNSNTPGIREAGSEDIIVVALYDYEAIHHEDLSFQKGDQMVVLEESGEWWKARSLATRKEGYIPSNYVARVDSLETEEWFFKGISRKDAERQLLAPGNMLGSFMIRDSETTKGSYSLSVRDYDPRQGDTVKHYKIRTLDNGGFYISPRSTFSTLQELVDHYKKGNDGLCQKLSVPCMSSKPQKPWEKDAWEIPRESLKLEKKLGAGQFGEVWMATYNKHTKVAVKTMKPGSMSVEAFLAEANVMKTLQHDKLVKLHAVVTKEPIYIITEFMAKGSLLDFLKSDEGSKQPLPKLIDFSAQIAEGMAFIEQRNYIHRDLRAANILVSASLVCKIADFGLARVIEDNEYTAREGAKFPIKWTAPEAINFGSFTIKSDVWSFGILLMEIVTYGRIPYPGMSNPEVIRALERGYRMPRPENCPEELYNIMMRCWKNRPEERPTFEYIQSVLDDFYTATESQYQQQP", "assay": "Kinome-wide inhibition profiling", "type": "biochemical", "protocol": "as §1"}, "FAK": {"target": "T4, FAK (Homo sapiens, UniProt Q05397)", "T4 construct": "purchased Reaction Biology Corp", "assay": "Kinome-wide inhibition profiling", "type": "biochemical", "protocol": "as §1"}, "ERN1": {"target": "T5, ERN1 (Homo sapiens, UniProt O75460)", "T5 construct": "purchased Reaction Biology Corp", "assay": "Kinome-wide inhibition profiling", "type": "biochemical", "protocol": "as §1"}, "MKK6": {"target": "T6, MKK6 (Homo sapiens, UniProt P52564)", "T6 construct": "purchased Reaction Biology Corp", "assay": "Kinome-wide inhibition profiling", "type": "biochemical", "protocol": "as §1"}, "S6K1": {"target": "T7, S6K1 (Homo sapiens, UniProt P23443)", "T7 construct": "purchased Reaction Biology Corp", "assay": "Kinome-wide inhibition profiling", "type": "biochemical", "protocol": "as §1"}, "PRKCQ": {"target": "T8, PRKCQ (Homo sapiens, UniProt Q04759)", "T8 construct": "purchased Reaction Biology Corp", "assay": "Kinome-wide inhibition profiling", "type": "biochemical", "protocol": "as §1"}, "FGFR3": {"target": "T9, FGFR3 (Homo sapiens, UniProt P22607)", "T9 construct": "purchased Reaction Biology Corp", "assay": "Kinome-wide inhibition profiling", "type": "biochemical", "protocol": "as §1"}, "WEE1": {"target": "T10, WEE1 (Homo sapiens, UniProt P30291)", "T10 construct": "purchased Reaction Biology Corp", "assay": "Kinome-wide inhibition profiling", "type": "biochemical", "protocol": "as §1"}, "RIPK4": {"target": "T11, RIPK4 (Homo sapiens, UniProt P57078)", "T11 construct": "purchased Reaction Biology Corp", "assay": "Kinome-wide inhibition profiling", "type": "biochemical", "protocol": "as §1"}, "PRKCD": {"target": "T12, PRKCD (Homo sapiens, UniProt Q05655)", "T12 construct": "purchased Reaction Biology Corp", "T12 sequence (Q05655 whole entry)": "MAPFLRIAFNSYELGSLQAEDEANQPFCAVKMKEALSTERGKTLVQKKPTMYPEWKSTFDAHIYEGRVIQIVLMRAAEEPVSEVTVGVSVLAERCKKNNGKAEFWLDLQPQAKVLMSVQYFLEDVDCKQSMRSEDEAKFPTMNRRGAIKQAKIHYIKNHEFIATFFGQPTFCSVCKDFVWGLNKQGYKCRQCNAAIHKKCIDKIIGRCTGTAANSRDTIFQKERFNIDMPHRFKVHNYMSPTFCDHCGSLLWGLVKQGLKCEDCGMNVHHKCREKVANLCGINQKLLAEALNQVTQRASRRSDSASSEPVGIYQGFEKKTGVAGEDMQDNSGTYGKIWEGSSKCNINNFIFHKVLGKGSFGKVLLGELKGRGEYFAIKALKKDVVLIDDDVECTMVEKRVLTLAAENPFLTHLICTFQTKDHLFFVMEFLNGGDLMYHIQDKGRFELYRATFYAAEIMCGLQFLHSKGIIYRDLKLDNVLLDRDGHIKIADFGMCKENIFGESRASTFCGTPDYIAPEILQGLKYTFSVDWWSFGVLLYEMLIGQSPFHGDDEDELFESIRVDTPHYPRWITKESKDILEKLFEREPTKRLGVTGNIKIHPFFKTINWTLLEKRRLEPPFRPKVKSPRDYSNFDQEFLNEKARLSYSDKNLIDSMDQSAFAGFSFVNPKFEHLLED", "assay": "Kinome-wide inhibition profiling", "type": "biochemical", "protocol": "as §1"}, "PRKG1b": {"target": "T13, PRKG1b (Homo sapiens, UniProt Q13976)", "T13 construct": "purchased Reaction Biology Corp", "T13 sequence (Q13976 1-686 isoform Q13976-2)": "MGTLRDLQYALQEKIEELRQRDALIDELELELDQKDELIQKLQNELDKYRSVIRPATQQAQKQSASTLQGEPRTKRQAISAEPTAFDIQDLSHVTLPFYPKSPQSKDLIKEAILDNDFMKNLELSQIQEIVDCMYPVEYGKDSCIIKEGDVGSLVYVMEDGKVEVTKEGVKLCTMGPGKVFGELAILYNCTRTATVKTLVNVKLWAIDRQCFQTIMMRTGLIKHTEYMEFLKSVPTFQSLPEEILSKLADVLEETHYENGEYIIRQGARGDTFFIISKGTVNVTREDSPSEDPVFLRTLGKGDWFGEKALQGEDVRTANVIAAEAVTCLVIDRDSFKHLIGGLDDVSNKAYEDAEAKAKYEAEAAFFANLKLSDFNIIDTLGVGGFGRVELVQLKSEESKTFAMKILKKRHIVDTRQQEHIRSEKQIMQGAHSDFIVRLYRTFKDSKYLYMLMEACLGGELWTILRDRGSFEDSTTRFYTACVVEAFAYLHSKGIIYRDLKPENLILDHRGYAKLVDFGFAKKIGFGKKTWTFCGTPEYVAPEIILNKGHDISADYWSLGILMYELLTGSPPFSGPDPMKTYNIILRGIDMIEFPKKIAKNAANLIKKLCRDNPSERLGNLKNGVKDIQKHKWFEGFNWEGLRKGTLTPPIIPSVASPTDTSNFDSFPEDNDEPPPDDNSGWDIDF", "assay": "Kinome-wide inhibition profiling", "type": "biochemical", "protocol": "as §1"}, "NEK6": {"target": "T14, NEK6 (Homo sapiens, UniProt Q9HC98)", "T14 construct": "purchased Reaction Biology Corp", "assay": "Kinome-wide inhibition profiling", "type": "biochemical", "protocol": "as §1"}, "CAMK2a": {"target": "T15, CAMK2a (Homo sapiens, UniProt Q9UQM7)", "T15 construct": "purchased Reaction Biology Corp", "assay": "Kinome-wide inhibition profiling", "type": "biochemical", "protocol": "as §1"}, "DAPK3": {"target": "T16, DAPK3 (Homo sapiens, UniProt O43293)", "T16 construct": "purchased Reaction Biology Corp", "assay": "Kinome-wide inhibition profiling", "type": "biochemical", "protocol": "as §1"}, "CDK2/cyclinA": {"target": "T17, CDK2/cyclinA (Homo sapiens, UniProt P24941)", "T17 construct": "purchased Reaction Biology Corp", "assay": "Kinome-wide inhibition profiling", "type": "biochemical", "protocol": "as §1"}, "TAOK3": {"target": "T18, TAOK3 (Homo sapiens, UniProt Q9H2K8)", "T18 construct": "purchased Reaction Biology Corp", "assay": "Kinome-wide inhibition profiling", "type": "biochemical", "protocol": "as §1"}, "ACVR1B": {"target": "T19, ACVR1B (Homo sapiens, UniProt P36896)", "T19 construct": "purchased Reaction Biology Corp", "assay": "Kinome-wide inhibition profiling", "type": "biochemical", "protocol": "as §1"}, "FYN": {"target": "T20, FYN (Homo sapiens, UniProt P06241)", "T20 construct": "purchased Reaction Biology Corp", "assay": "Kinome-wide inhibition profiling", "type": "biochemical", "protocol": "as §1"}, "CSNK1A1L": {"target": "T21, CSNK1A1L (Homo sapiens, UniProt Q8N752)", "T21 construct": "purchased Reaction Biology Corp", "T21 sequence (Q8N752 whole entry)": "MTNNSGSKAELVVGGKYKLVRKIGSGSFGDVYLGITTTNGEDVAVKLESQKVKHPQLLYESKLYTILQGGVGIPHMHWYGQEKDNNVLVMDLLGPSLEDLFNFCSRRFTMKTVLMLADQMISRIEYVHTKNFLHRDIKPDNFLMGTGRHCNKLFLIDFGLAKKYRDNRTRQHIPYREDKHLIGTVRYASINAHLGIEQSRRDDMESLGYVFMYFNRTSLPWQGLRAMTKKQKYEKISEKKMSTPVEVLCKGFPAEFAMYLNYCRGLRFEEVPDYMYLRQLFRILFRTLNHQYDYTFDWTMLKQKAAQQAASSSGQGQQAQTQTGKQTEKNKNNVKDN", "assay": "Kinome-wide inhibition profiling", "type": "biochemical", "protocol": "as §1"}, "DCAMKL1": {"target": "T22, DCAMKL1 (Homo sapiens, UniProt O15075)", "T22 construct": "purchased Reaction Biology Corp", "T22 sequence (O15075 whole entry)": "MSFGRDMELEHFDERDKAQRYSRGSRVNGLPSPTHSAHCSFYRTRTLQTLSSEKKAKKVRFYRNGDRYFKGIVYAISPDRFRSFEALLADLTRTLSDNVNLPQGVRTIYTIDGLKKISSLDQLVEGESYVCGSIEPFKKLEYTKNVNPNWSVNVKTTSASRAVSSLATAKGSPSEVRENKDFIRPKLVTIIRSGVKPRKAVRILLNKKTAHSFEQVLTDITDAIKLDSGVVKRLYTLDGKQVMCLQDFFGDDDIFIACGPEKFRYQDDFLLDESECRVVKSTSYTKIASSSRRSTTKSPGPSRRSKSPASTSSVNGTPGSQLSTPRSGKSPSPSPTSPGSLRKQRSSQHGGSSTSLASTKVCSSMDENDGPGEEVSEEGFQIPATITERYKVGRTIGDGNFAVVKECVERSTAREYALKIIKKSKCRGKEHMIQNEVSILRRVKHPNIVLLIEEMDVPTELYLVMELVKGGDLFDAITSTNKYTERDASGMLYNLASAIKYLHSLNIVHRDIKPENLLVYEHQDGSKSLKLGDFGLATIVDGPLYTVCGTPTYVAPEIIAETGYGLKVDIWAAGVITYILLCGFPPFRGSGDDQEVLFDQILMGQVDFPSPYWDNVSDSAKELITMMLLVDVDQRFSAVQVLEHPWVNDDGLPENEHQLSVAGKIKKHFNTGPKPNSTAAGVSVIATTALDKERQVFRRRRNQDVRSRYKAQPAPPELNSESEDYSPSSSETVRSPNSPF", "assay": "Kinome-wide inhibition profiling", "type": "biochemical", "protocol": "as §1"}, "ROS1": {"target": "T23, ROS1 (Homo sapiens, UniProt P08922)", "T23 construct": "purchased Reaction Biology Corp", "assay": "Kinome-wide inhibition profiling", "type": "biochemical", "protocol": "as §1"}, "CAMKK2": {"target": "T24, CAMKK2 (Homo sapiens, UniProt Q96RR4)", "T24 construct": "purchased Reaction Biology Corp", "assay": "Kinome-wide inhibition profiling", "type": "biochemical", "protocol": "as §1"}, "DRAK1": {"target": "T25, DRAK1 (Homo sapiens, UniProt Q9UEE5)", "T25 construct": "purchased Reaction Biology Corp", "assay": "Kinome-wide inhibition profiling", "type": "biochemical", "protocol": "as §1"}, "CLK2": {"target": "T26, CLK2 (Homo sapiens, UniProt P49760)", "T26 construct": "purchased Reaction Biology Corp", "set-up": "method as in HMS LINCS database", "conditions": "10 μM, ref HMS LINCS database; cited from earlier work"}, "DYRK1A": {"target": "T27, DYRK1A (Homo sapiens, UniProt Q13627)", "T27 construct": "purchased Reaction Biology Corp", "set-up": "method as in HMS LINCS database", "conditions": "10 μM, ref HMS LINCS database; cited from earlier work"}}, "data": [{"smiles": "CCn1cnc2c(NCc3ccc(-c4ccccn4)nc3)nc(-c3ccc(N)nc3)nc21", "note": "[Compound 30d, N-([2,2′-Bipyridin]-5-ylmethyl)-2-(6-aminopyridin-3-yl)-9-ethyl-9H-purin-6-amine]", "values": [{"measurement": "inhibition at 10 µM", "setting": "CDK12/CyclinK", "result": "> 95", "unit": "%"}, {"measurement": "remaining activity at 10 µM", "setting": "CDK12/CyclinK", "result": 1.1, "unit": "%"}, {"measurement": "remaining activity at 10 µM", "setting": "MNK2", "result": 91.2, "unit": "%"}, {"measurement": "remaining activity at 10 µM", "setting": "MARK4", "result": 66.9, "unit": "%"}, {"measurement": "remaining activity at 10 µM", "setting": "HCK", "result": 46.5, "unit": "%"}, {"measurement": "remaining activity at 10 µM", "setting": "FAK", "result": 52.5, "unit": "%"}, {"measurement": "remaining activity at 10 µM", "setting": "ERN1", "result": 50.8, "unit": "%"}, {"measurement": "remaining activity at 10 µM", "setting": "MKK6", "result": 95.4, "unit": "%"}, {"measurement": "remaining activity at 10 µM", "setting": "S6K1", "result": 92.1, "unit": "%"}, {"measurement": "remaining activity at 10 µM", "setting": "PRKCQ", "result": 79.8, "unit": "%"}, {"measurement": "remaining activity at 10 µM", "setting": "FGFR3", "result": 30.6, "unit": "%"}, {"measurement": "remaining activity at 10 µM", "setting": "WEE1", "result": 90.2, "unit": "%"}, {"measurement": "remaining activity at 10 µM", "setting": "RIPK4", "result": 97.8, "unit": "%"}, {"measurement": "remaining activity at 10 µM", "setting": "PRKCD", "result": 95.2, "unit": "%"}, {"measurement": "remaining activity at 10 µM", "setting": "PRKG1b", "result": 97.6, "unit": "%"}, {"measurement": "remaining activity at 10 µM", "setting": "NEK6", "result": 92.1, "unit": "%"}, {"measurement": "remaining activity at 10 µM", "setting": "CAMK2a", "result": 64, "unit": "%"}, {"measurement": "remaining activity at 10 µM", "setting": "DAPK3", "result": 80.8, "unit": "%"}, {"measurement": "inhibition at 10 µM", "setting": "CDK2/cyclinA", "result": "> 95", "unit": "%"}, {"measurement": "remaining activity at 10 µM", "setting": "CDK2/cyclinA", "result": 1.2, "unit": "%"}, {"measurement": "remaining activity at 10 µM", "setting": "TAOK3", "result": 23.1, "unit": "%"}, {"measurement": "remaining activity at 10 µM", "setting": "ACVR1B", "result": 132, "unit": "%"}, {"measurement": "remaining activity at 10 µM", "setting": "FYN", "result": 81, "unit": "%"}, {"measurement": "remaining activity at 10 µM", "setting": "CSNK1A1L", "result": 53.1, "unit": "%"}, {"measurement": "remaining activity at 10 µM", "setting": "DCAMKL1", "result": 72.6, "unit": "%"}, {"measurement": "remaining activity at 10 µM", "setting": "ROS1", "result": 27.8, "unit": "%"}, {"measurement": "remaining activity at 10 µM", "setting": "CAMKK2", "result": 10.6, "unit": "%"}, {"measurement": "remaining activity at 10 µM", "setting": "DRAK1", "result": 79.3, "unit": "%"}]}, {"smiles": "CCc1cnn2c(NCc3ccc[n+]([O-])c3)cc(N3CCCC[C@H]3CCO)nc12", "note": "[Dinaciclib]", "values": [{"measurement": "% control", "setting": "CLK2", "result": 4.2, "unit": "%"}, {"measurement": "% control", "setting": "DYRK1A", "result": 6.0, "unit": "%"}]}]}
